Results: US20050228041A1, “Protective and therapeutic uses for tocotrienols” (priority 2003, published 2005)
“Also recorded” adds a separate entry of the source.

How the values were obtained:
[1] = target: T1, Purified 12-lipoxygenase (porcine leukocyte) (Sus scrofa, UniProt P16469); experiment: Pure 12-lipoxygenase activity with [14C]-arachidonic acid (thin layer chromatography); format: biochemical; conditions: 10 units enzyme, [14C]-arachidonic acid 25 μM, 30 min, 37° C.
T1 construct: purchased Biomol Research labs Inc, Plymouth Meeting, Pa
T1 sequence (P16469 1-663): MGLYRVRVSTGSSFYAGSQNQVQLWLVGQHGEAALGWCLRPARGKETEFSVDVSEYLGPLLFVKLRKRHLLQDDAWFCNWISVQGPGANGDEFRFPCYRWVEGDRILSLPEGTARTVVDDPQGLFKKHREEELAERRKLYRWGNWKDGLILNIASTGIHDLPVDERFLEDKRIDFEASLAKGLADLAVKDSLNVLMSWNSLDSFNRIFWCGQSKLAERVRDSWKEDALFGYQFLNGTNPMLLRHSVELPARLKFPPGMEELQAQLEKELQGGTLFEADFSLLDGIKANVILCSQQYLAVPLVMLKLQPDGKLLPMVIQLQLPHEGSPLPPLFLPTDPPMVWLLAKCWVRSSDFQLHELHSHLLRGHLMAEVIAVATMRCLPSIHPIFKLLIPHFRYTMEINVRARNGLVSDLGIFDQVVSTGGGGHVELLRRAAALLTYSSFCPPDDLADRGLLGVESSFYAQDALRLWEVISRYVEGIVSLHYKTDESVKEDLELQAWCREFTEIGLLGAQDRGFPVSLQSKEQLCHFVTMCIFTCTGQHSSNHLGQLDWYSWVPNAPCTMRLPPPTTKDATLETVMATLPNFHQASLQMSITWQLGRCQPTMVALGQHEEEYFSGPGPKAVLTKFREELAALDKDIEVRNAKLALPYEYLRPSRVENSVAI
Procedure: Referring to FIG. 6, HT4 cells were subjected to glutamate treatment for 2 h. […] Purified 12-lipoxygenase (porcine leukocyte; 10 units) was incubated with [^14C]-arachidonic acid (25 μM) for 30 min at 37° C. Arachidonic acid and 12-HETE were resolved using thin layer chromatography as described in Materials & Methods We observed that in HT4 cells, treatment with glutamate mobilized cytosolic 12-LOX protein to the cell membrane (FIGS. 6A&B).
12-Lipoxygenase activity. To investigate whether tocotrienol directly affect the activity of 12-LOX (12-LOX), 10 units of 12-LOX (Biomol Research labs Inc, Plymouth Meeting, Pa.) was incubated at room temperature for 15 min with or without tocotrienol as indicated in the respective figure legend. The reaction mixture contained 50 mM Tris HCl, pH 7.4 and 1 mM EDTA. After 15 min, the reaction was initiated by adding 25 μM [1-^14C]-arachidonic acid per sample. Samples were kept at 37° C. for 30 minutes. The reaction was terminated by adding 200 μl of ice-cold stop solution containing diethyl ether, methanol and 1 M citric acid at a ratio of 30:4:1 by volume. After mixing, samples were centrifuged and the ethereal extracts were spotted on a silica gel thin layer plate. […] Distribution of radioactivity of the substrate and products on the plate were quantified using a imaging analyzer.

[2] = tested on: rat primary cortical neurons; experiment: Imaging of glutamate-induced degeneration of rat primary cortical neurons (immunofluorescence, live cell imaging); format: cell-based; conditions: glutamate 10 mM, α-tocotrienol 250 nM or BL15 2.5 μM 5 min before
Procedure: Phase contrast images were collected once every 15 mins for 18 h from 8 h after glutamate treatment.
For immunofluorescence microscopy, primary cultures of rat cortical neurons were plated on 35 mm plates pre-coated with poly-L-lysine. After 24 h, cell were treated with α-tocotrienol or BL15 for 5 minutes and then challenged with glutamate or exposed to glutamate. After 24 h of glutamate exposure, cells were washed thrice in PBS, fixed for 10 minutes at room temperature in 4% paraformaldehyde, and permeabilized with PBS-T (PBS containing 0.2% Triton X-100) for 20 minutes at room temperature. Samples were then rinsed 3× with PBS-T and blocking (2% BSA in PBS-T) was done for 1 h at room temperature. After blocking, samples were incubated overnight at 4° C. with the primary antibody (anti-neurofilament 200 (1:100, Sigma St. Louis, Mo.) or neuronal class III α-tubulin (1:500, Covance Berkeley, Calif.)}. After washing with PBS (3×, 5 min each), the samples were incubated with Alexa Fluor 488 conjugated goat anti-mouse or anti-rabbit (Molecular Probes Eugene, Oreg.) secondary antibody for 45 minutes at room temperature. This was followed by three PBS washes, and mounting in aqueous medium. Fluorescent images were collected using a Zeiss Axiovert 200M microscope. Images were acquired using Axiovision 3.1.
For live cell imaging, primary cultures of rat cortical neurons were plated on 35 mm plates pre-coated with poly-L-lysine. […] Images were collected once every 15 minutes using a specialized phase contrast Zeiss optics suited for imaging cells growing in routine culture plates.

CC(C)=CCC/C(C)=C/CC/C(C)=C/CC[C@]1(C)CCc2c(C)c(O)c(C)c(C)c2O1 [α-tocotrienol]
inhibition of pure 12-lipoxygenase activity [1]: dose-dependently inhibited | glutamate-induced degeneration of the neural network and neuronal growth [2]: resisted degeneration and continued to grow; also recorded: prevents glutamate-induced neuro-degeneration; also recorded: protection | glutamate-induced degeneration of the neural network and neuronal growth ([2]; listed as α-Tocotrienol): insensitive to glutamate
